Measured values taken from patent publication US20100317642A1, “PHARMACEUTICAL COMPOSITION OF ORLISTAT” (INVENTIS DDS PVT LIMITED, priority 2007, published 2010).

How the values were obtained:
[1] = within the physiological pH range; cited from earlier work
[2] = Effect of elevated temperature on appearance and handling properties (hot air oven, Petri dishes); format: physicochemical; settings: for Appearance and handling properties at elevated temperature: hot air oven
Excerpt: The affect of elevated temperature on appearance and handling properties on the orlistat compositions of this invention was studied by slowly increasing the temperature of a hot air oven in which these compositions were kept in Petri dishes. Pure orlistat also was subjected to this study. To carry out a comparison with the innovator's formulation Xenical®, its contents were emptied in a Petri dish. The observations of this study are given below—

CCCCCCCCCCC[C@@H](C[C@@H]1OC(=O)[C@H]1CCCCCC)OC(=O)[C@H](CC(C)C)NC=O [Orlistat, orlistat]
solubility in water [1]: very low solubility | Appearance and handling properties at elevated temperature ([2]; 30 ° C.): No change | Appearance and handling properties at elevated temperature ([2]; 35 ° C., -do- = same as cell above): -do- | Appearance and handling properties at elevated temperature ([2]; 37 ° C., -do- = same as cell above): softens | Appearance and handling properties at elevated temperature ([2]; 40 ° C.): Starts melting | Appearance and handling properties at elevated temperature ([2]; 45 ° C., cells wrap: 'Slightly soft and sticky', 'Melts completely'): Melts | Appearance and handling properties at elevated temperature ([2]; 50 ° C., -do- = same as cell above, Xenical cell wraps: 'Slightly soft and sticky, becomes powdery on touching'): -do- | Appearance and hardness after heating ([2]; Cooled down to less than 30° C., cells wrap: 'Regains its original hardness', 'Does not retain its original appearance'): Does not retain
